Measurements published in BigSolDB 2.1.

O=[N+]([O-])c1ccc(Oc2ccc([N+](=O)[O-])cc2)cc1
solubility (mole fraction)
Conditions	283.15 K	288.15 K	293.15 K	298.15 K	303.15 K	308.15 K	313.15 K	318.15 K	323.15 K
in 1,4-dioxane	0.026	0.0325	0.0409	0.0489	0.0575	0.0674	0.08	0.0922	0.11
in 1-methoxy-2-propanol	0.00539	0.00657	0.0071	0.00864	0.00979	0.0114	0.0137	0.0162	0.0198
in 2-methoxyethanol	0.00657	0.00753	0.00823	0.0103	0.0116	0.0131	0.0158	0.0182	0.022
in DMAc	0.0802	0.0866	0.0913	0.103	0.115	0.126	0.144	0.164	0.184
in DMF	0.0524	0.0612	0.0663	0.077	0.0883	0.0933	0.111	0.126	0.152
in acetic acid	0.00292	0.00347	0.00366	0.00469	0.00525	0.00612	0.0072	0.00835	0.0103
in acetone	0.0155	0.0173	0.0197	0.0246	0.0281	0.0333	0.0401	0.0484	0.0571
in acetonitrile	0.00446	0.00587	0.00682	0.00926	0.0104	0.0129	0.0158	0.0195	0.0241
in anisole	0.0243	0.0293	0.0339	0.0395	0.0444	0.0547	0.0647	0.0746	0.0893
in ethanol	0.00035	0.000369	0.000418	0.000531	0.000631	0.000807	0.00102	0.00124	0.0015
in ethyl acetate	0.0133	0.015	0.0172	0.0206	0.0228	0.0266	0.0316	0.036	0.0422
in isopropanol	0.000139	0.000199	0.000222	0.000322	0.000394	0.000538	0.000779	0.000996	0.00136
in methanol	0.000259	0.000329	0.000376	0.000525	0.000637	0.000804	0.00095	0.00115	0.00145
in n-butanol	0.000203	0.000337	0.00049	0.000661	0.000826	0.00111	0.00144	0.00183	0.00241
